Measured values taken from PMC5742828, “α-Glucosidase and Protein Tyrosine Phosphatase 1B Inhibitory Activity of Plastoquinones from Marine Brown Alga Sargassum serratifolium” (Marine Drugs, 2017).

What was measured:
Format in all cases: biochemical
[1] = biological target: T1, PTP1B (human recombinant) (Homo sapiens, UniProt P18031); test: PTP1B inhibitory assay (pNPP substrate); details: log-dose inhibition curve; mean ± SEM of triplicate experiments
T1 construct: purchased Biomol International LP (Plymouth Meeting, PA, USA)
T1 sequence (P18031 1-435): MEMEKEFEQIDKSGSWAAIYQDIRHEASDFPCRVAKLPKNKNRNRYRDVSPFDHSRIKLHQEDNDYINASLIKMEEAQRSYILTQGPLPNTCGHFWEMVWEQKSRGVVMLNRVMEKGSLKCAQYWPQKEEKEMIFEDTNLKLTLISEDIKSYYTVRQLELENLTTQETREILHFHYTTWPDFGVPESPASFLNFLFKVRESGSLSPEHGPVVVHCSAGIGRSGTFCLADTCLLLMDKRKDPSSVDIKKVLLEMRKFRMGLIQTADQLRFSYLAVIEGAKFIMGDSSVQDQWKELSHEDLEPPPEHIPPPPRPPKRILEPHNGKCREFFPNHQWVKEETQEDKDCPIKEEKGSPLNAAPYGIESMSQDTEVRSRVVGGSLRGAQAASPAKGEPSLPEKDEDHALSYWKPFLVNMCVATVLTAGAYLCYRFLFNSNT
Procedure: Dithiothreitol (DTT) was purchased from Bio-Rad Laboratories (Hercules, CA, USA) and PTP1B (human recombinant) was purchased from Biomol International LP (Plymouth Meeting, PA, USA). ONOO^− was purchased from Molecular Probes Cayman (Ann Arbor, MI, USA). All other chemicals and solvents used were purchased from E. Merck, Fluka, and Sigma-Aldrich, unless otherwise stated. The PTP1B inhibitory activities of the plastoquinones were evaluated using pNPP [68]. Recombinant PTP1B enzyme (0.5 units diluted with a PTP1B reaction buffer) was added with or without sample. The plate was pre-incubated at 37 °C for 10 min and then substrate (2 mM pNPP) was added. Following incubation at 37 °C for 15 min, the enzymatic reaction was terminated by the addition of 10 M NaOH.

[2] = test system: bovine serum albumin (BSA); test: Inhibition of ONOO−-mediated albumin nitration (western blot, 3-nitrotyrosine antibody); details: ONOO− 200 µM
Procedure: Figure 5 Dose-depended inhibition of ONOO^−-mediated albumin nitration by plastoquinones. Mixtures of test samples, bovine serum albumin (BSA), and ONOO^− were incubated with shaking at 37 °C for 30 min. The reactant was resolved in 10% polyacrylamide gel via electrophoresis. (a) sargahydroquinoic acid; (b) sargachromenol; and (c) sargaquinoic acid were used at the indicated concentrations; (d) Quantification of band intensity was calculated using CS Analyzer 3.00 (ATTO Corp., Tokyo, Japan). ^# p < 0.05 indicates a significant difference from the untreated normal group, * p < 0.05 indicate significant differences from the ONOO^− treated control.
The inhibition of ONOO^–-mediated nitrated albumin was evaluated using the method of Aulak et al.. Samples were added to bovine serum albumin (BSA) and mixed with ONOO^− (200 µM). After 10 min incubation (room temperature), the sample solution was added to Bio-Rad 2X Laemmli Sample buffer with mercaptoethanol and then boiled for 7 min. The reactant was resolved in 10% polyacrylamide gel via electrophoresis and transferred onto PVDF membranes. Pre-stained blue protein markers were used for molecular weight determination. Monoclonal anti-nitrotyrosine antibody (85 kDa) was used as a primary antibody and horseradish peroxidase-conjugated sheep anti-mouse secondary antibody was used as a secondary antibody. Antibody labeling was visualized using the Supersignal West Pico Chemiluminescent substrate (Pierce Chemical Co., Rockford, IL, USA). Densitometric analysis of the western blot results was determined using CS analyzer v3.00 (ATTO Corp.).

[3] = biological target: T1, PTP1B (human recombinant); test: Kinetic study against PTP1B (Dixon plots); details: Dixon plot; pNPP 0.5, 1.0, 2.0 mM
Procedure: (§1) In an attempt to explain the mode of enzymatic inhibition of sargahydroquinoic acid, sargachromenol, and sargaquinoic acid, kinetic analysis was performed at different concentrations of the substrate (pNPP for PTP1B and pNPG for α-glucosidase) and inhibitor.
Figure 3 Dixon plots for PTP1B inhibition of compounds. (a) sargahydroquinoic acid; (b) sargachromenol and (c) sargaquinoic acid were tested in the presence of different concentrations of substrate: 2.0 mM (●); 1.0 mM (ο); 0.5 mM (▼).
(§2) To determine the modes of enzyme inhibition, Dixon plots were used. The kinetic analyses were performed at different concentrations of substrate (0.625, 1.25, and 2.5 mM pNPG for α-glucosidase; 0.5, 1.0, and 2.0 mM pNPP for PTP1B) and various concentrations of plastoquinones (0, 0.4, 2.0, and 10.0 µM for PTP1B and 0, 25, 50 and 100 µM for α-glucosidase, respectively). Enzymatic inhibition of the test plastoquinones was evaluated by monitoring the effects of different concentrations of the substrate in the Dixon plots (single reciprocal plots). The enzymatic procedure consisted of the same aforementioned assay method. The inhibition constants (Ki) were determined via interpretation of the Dixon plots, where the value of the x-axis implies -Ki.

[4] = biological target: Yeast α-glucosidase (Saccharomyces cerevisiae, UniProt P53341); test: Kinetic study against α-glucosidase (Dixon plots); details: Dixon plot; pNPG 0.625, 1.25, 2.5 mM
Yeast α-glucosidase, sequence (P53341 whole entry): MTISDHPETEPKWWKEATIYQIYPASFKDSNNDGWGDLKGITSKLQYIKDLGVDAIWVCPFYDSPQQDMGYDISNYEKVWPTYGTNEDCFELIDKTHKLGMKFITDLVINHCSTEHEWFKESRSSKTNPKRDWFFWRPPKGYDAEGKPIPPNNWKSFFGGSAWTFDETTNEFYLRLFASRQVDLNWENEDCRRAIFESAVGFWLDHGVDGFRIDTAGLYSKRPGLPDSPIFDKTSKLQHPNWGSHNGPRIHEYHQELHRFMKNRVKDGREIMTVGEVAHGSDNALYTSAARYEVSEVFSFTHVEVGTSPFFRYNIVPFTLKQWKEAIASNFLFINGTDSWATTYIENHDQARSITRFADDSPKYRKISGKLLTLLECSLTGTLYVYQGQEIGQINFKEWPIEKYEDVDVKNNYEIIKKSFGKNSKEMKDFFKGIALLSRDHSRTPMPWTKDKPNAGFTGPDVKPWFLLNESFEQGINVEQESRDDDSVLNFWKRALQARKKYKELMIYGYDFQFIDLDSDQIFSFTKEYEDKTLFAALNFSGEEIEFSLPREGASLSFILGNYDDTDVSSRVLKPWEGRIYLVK
Procedure: as §1
Figure 4 Dixon plots for α-glucosidase inhibition of compounds. (a) sargachromenol and (b) sargaquinoic acid were tested in the presence of different concentrations of substrate: 2.5 mM (●); 1.25 mM (ο); 0.625 mM (▼).
as §2

Compound | IC50 [1] [µM] | Inhibition of ONOO−-mediated albumin nitration ([2]; pretreatment at 2.5–10 μM) | Ki [3] [µM] | PTP1B Inhibition Type [3] | α-Glucosidase Inhibition Type [4] | Inhibition of ONOO−-mediated albumin nitration ([2]; pretreatment at 5–25 μM)
CC(C)=CCC/C(=C/CC/C(C)=C/CCC1(C)C=Cc2cc(O)cc(C)c2O1)C(=O)O (centres unmarked) [Sargachromenol, sargachromenol] | 11.8 ± 3.35 | strong inhibition | 5.85 | Non-competitive | Non-competitive | 
CC(C)=CCC/C(=C/CC/C(C)=C/CC/C(C)=C/Cc1cc(O)cc(C)c1O)C(=O)O [Sargahydroquinoic acid, sargahydroquinoic acid] | 5.14 ± 0.07 |  | 2.21 | Mixed |  | markedly dose-dependent inhibition
CC(C)=CCC/C(=C/CC/C(C)=C/CC/C(C)=C/CC1=CC(=O)C=C(C)C1=O)C(=O)O [Sargaquinoic acid, sargaquinoic acid] | 14.15 ± 0.02 |  | 5.2 | Mixed | Mixed | markedly dose-dependent inhibition
